How the values were obtained:
[1] = target: hSERT (Homo sapiens, UniProt P31645); experiment: hSERT membrane radioligand binding assay (3H-citalopram), Assay 1; settings: SERT pKi, hSERT HEK-293 membranes, 1.0 nM 3H-citalopram; values given as lower bounds
[2] = target: hNET (Homo sapiens, UniProt P23975); experiment: hNET membrane radioligand binding assay (3H-nisoxetine), Assay 1
Sequence of hNET (P23975 whole entry): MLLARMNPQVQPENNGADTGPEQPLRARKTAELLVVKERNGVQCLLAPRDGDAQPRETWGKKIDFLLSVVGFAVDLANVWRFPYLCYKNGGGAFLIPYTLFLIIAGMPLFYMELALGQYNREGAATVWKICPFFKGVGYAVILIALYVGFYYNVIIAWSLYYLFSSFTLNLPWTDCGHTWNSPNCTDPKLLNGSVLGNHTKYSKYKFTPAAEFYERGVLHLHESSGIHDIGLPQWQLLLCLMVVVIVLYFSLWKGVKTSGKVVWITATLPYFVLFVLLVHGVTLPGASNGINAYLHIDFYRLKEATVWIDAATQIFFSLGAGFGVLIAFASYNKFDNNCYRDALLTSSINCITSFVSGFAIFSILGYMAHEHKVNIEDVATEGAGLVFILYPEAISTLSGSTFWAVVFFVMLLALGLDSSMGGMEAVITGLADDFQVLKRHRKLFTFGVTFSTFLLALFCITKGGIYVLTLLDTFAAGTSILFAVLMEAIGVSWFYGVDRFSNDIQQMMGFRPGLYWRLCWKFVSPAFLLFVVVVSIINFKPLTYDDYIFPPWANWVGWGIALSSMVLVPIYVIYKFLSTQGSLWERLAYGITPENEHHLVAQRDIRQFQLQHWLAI
Method: Membrane radioligand binding assays were used to measure inhibition of labeled ligand (^3H-citalopram or ^3H-nisoxetine or ^3H-WIN35428) binding to membranes prepared from cells expressing the respective human recombinant transporter (hSERT or hNET or hDAT) in order to determine the pKi values of test compounds at the transporters.
Recombinant human embryonic kidney (HEK-293) derived cell lines stably transfected with hSERT or hNET, respectively, were grown in DMEM medium supplemented with 10% dialyzed FBS (for hSERT) or FBS (for hNET), 100 μg/mL penicillin, 100 μg/mL streptomycin, 2 mM L-glutamine and 250 μg/mL of the aminoglycoside antibiotic G418, in a 5% CO2 humidified incubator at 37° C. When cultures reached 80% confluence, the cells were washed thoroughly in PBS (without Ca^2+ and Mg^2+) and lifted with 5 mM EDTA in PBS. Cells were pelleted by centrifugation, resuspended in lysis buffer (10 mM Tris-HCl, pH7.5 containing 1 mM EDTA), homogenized, pelleted by centrifugation, then resuspended in 50 mM Tris-HCl, pH 7.5 and 10% sucrose at 4° C. Protein concentration of the membrane suspension was determined using a Bio-Rad Bradford Protein Assay kit. Membranes were snap frozen and stored at −80° C.
Binding assays were performed in a 96-well assay plate in a total volume of 200 μl assay buffer (50 mM Tris-HCl, 120 mM NaCl, 5 mM KCl, pH 7.4) with 0.5, 1, and 3 μg membrane protein, for SERT, NET and DAT, respectively.
Stock solutions (10 mM in DMSO) of test compound were prepared and serial dilutions made using Dilution Buffer (50 mM Tris-HCl, 120 mM NaCl, 5 mM KCl, pH 7.4, 0.1% BSA, 400 μM ascorbic acid).
Following a 60 minute incubation at 22° C. (or a period sufficient to reach equilibrium), the membranes were harvested by rapid filtration over a 96-well UniFilter GF/B plate, pretreated with 0.3% polyethyleneimine, and washed 6 times with 300 μl wash buffer (50 mM Tris-HCl, 0.9% NaCl, pH 7.5 at 4° C.). Plates were dried overnight at room temperature, approximately 45 μl of MicroScint™-20 (Perkin Elmer) added and bound radioactivity quantitated via liquid scintillation spectroscopy. Inhibition curves and saturation isotherms were analyzed using GraphPad Prism Software package (GraphPad Software, Inc., San Diego, Calif.). IC50 values were generated from concentration response curves using the Sigmoidal Dose Response (variable slope) algorithm in Prism GraphPad.

Sequence of hSERT (P31645 whole entry): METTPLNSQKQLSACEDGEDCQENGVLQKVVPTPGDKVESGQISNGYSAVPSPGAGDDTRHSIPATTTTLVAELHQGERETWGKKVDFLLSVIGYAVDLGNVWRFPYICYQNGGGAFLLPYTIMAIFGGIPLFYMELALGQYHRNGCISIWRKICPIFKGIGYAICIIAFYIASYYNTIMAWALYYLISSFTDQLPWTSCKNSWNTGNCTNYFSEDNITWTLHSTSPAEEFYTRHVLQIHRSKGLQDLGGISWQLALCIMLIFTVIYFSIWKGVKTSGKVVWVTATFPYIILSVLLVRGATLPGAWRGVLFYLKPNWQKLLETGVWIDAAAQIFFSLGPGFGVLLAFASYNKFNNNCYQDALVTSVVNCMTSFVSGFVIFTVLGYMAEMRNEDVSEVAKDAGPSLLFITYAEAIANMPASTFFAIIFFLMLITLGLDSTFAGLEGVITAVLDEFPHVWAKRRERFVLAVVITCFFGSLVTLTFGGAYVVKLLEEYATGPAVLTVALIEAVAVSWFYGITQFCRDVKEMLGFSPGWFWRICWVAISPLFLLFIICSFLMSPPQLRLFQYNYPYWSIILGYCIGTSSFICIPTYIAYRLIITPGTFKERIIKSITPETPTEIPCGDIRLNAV

| Structure (SMILES) | Ki [1] [nM] | Ki [2] [nM] |
| --- | --- | --- |
| CC[C@@H](Oc1ccc(Cl)cc1)[C@@H]1CCNC1 [Example 2-3, (R)-3-[(R)-1-(4-Chlorophenoxy)propyl]pyrrolidine] | ≤ 10 | ≤ 100 |
| CC[C@H](Oc1cccc(F)c1)[C@H]1CCNC1 [Example 2-9, (S)-3-[(S)-1-(3-Fluorophenoxy)propyl]pyrrolidine] | ≤ 100 | ≤ 10 |
| CC[C@H](Oc1ccc(F)cc1)[C@H]1CCNC1 [Example 2-12, (S)-3-[(S)-1-(4-Fluorophenoxy)propyl]pyrrolidine] | ≤ 100 | ≤ 100 |
| CC[C@H](Oc1cccc(C(F)(F)F)c1)[C@H]1CCNC1 [Example 2-16, (S)-3-[(S)-1-(3-Trifluoromethylphenoxy)propyl]pyrrolidine] | ≤ 10 | ≤ 100 |
| CC[C@H](Oc1ccc(C(F)(F)F)cc1)[C@H]1CCNC1 [Example 2-17, (S)-3-[(S)-1-(4-Trifluoromethylphenoxy)propyl]pyrrolidine] | ≤ 10 | ≤ 100 |
| CC[C@@H](Oc1c(F)cccc1Cl)[C@H]1CCNC1 [Example 2-26, (S)-3-[(R)-1-(2-Chloro-6-fluorophenoxy)propyl]pyrrolidine] | ≤ 100 | ≤ 10 |
| CC[C@H](Oc1cccc(Cl)c1Cl)[C@@H]1CCNC1 [Example 2-30, (R)-3-[(S)-1-(2,3-Dichlorophenoxy)propyl]pyrrolidine] | ≤ 10 | ≤ 100 |
| CC[C@@H](Oc1ccc(Cl)cc1Cl)[C@@H]1CCNC1 [Example 2-33, (R)-3-[(R)-1-(2,4-Dichlorophenoxy)propyl]pyrrolidine] | ≤ 10 | ≤ 100 |
| CC[C@@H](Oc1cc(F)cc(F)c1Cl)[C@H]1CCNC1 [Example 2-36, (S)-3-[(R)-1-(2-Chloro-3,5-difluorophenoxy)propyl]pyrrolidine] | ≤ 100 | ≤ 100 |
| CC[C@H](Oc1ccccc1F)[C@H]1CCNC1 [Example 2-46, (S)-3-[(S)-1-(2-Fluorophenoxy)propyl]pyrrolidine] | ≤ 100 | ≤ 10 |
| CC[C@H](Oc1c(F)cccc1F)[C@H]1CCNC1 [Example 2-49, (S)-3-[(S)-1-(2,6-Difluorophenoxy)propyl]pyrrolidine] | ≤ 100 | ≤ 10 |
| CC[C@H](Oc1ccc(F)c(F)c1F)[C@H]1CCNC1 [Example 2-50, (S)-3-[(S)-1-(2,3,4-Trifluorophenoxy)propyl]pyrrolidine] | ≤ 10 | ≤ 100 |
| CC[C@@H](Oc1c(F)ccc(Cl)c1F)[C@H]1CCNC1 [Example 2-53, (S)-3-[(R)-1-(3-Chloro-2,6-difluorophenoxy)propyl]pyrrolidine] | ≤ 100 | ≤ 10 |
| CC[C@@H](Oc1c(Cl)ccc(C)c1F)[C@H]1CCNC1 [Example 2-54, (S)-3-[(R)-1-(6-Chloro-2-fluoro-3-methylphenoxy)propyl]pyrrolidine] | ≤ 100 | ≤ 10 |
| CC[C@H](Oc1c(F)c(F)cc(F)c1F)[C@H]1CCNC1 [Example 2-56, (S)-3-[(S)-1-(2,3,5,6-Tetrafluorophenoxy)propyl]pyrrolidine] | ≤ 100 | ≤ 10 |
| CC[C@@H](Oc1ccc(Cl)cc1C)[C@H]1CCNC1 [Example 2-59, (S)-3-[(R)-1-(4-Chloro-2-methylphenoxy)propyl]pyrrolidine] | ≤ 10 | ≤ 100 |
| CC[C@H](Oc1ccc(Cl)cc1C)[C@@H]1CCNC1 [Example 2-61, (R)-3-[(S)-1-(4-Chloro-2-methylphenoxy)propyl]pyrrolidine] | ≤ 10 | ≤ 100 |
| CC[C@@H](Oc1ccccc1C)[C@H]1CCNC1 [Example 2-63, (S)-3-((R)-1-o-Tolyloxypropyl)pyrrolidine] | ≤ 100 | ≤ 100 |
| CC[C@H](Oc1ccccc1OC)[C@H]1CCNC1 [Example 2-67, (S)-3-[(S)-1-(2-Methoxyphenoxy)propyl]pyrrolidine] | ≤ 100 | ≤ 10 |
| CC[C@H](Oc1cccc(Cl)c1C(F)(F)F)[C@@H]1CCNC1 [Example 2-73, (R)-3-[(S)-1-(3-Chloro-2-trifluoromethylphenoxy)propyl]pyrrolidine] | ≤ 10 | ≤ 100 |

Results, then the molecule that gave them:

| Ki [1] [nM] | Ki [2] [nM] | Structure (SMILES) |
| --- | --- | --- |
| ≤ 10 | ≤ 100 | CCC[C@H](Oc1ccc(Cl)cc1)[C@@H]1CCNC1 [Example 4-3, (R)-3-[(S)-1-(4-Chlorophenoxy)butyl]pyrrolidine] |
| ≤ 10 | ≤ 100 | CCC[C@@H](Oc1ccc(Cl)cc1)[C@@H]1CCNC1 [Example 4-4, (R)-3-[(R)-1-(4-Chlorophenoxy)butyl]pyrrolidine] |
| ≤ 10 | ≤ 100 | CCC[C@H](Oc1cc(Cl)cc(Cl)c1)[C@@H]1CCNC1 [Example 4-8, (R)-3-[(S)-1-(3,5-Dichlorophenoxy)butyl]pyrrolidine] |
| ≤ 100 | ≤ 100 | CCC[C@H](Oc1ccccc1Cl)[C@@H]1CCNC1 [Example 4-21, (R)-3-[(S)-1-(2-Chlorophenoxy)butyl]pyrrolidine] |
| ≤ 100 | ≤ 10 | CCC[C@@H](Oc1ccccc1Cl)[C@@H]1CCNC1 [Example 4-22, (R)-3-[(R)-1-(2-Chlorophenoxy)butyl]pyrrolidine] |
| ≤ 10 | ≤ 100 | CCC[C@H](Oc1cccc(Cl)c1Cl)[C@@H]1CCNC1 [Example 4-24, (R)-3-[(S)-1-(2,3-Dichlorophenoxy)butyl]pyrrolidine] |
| ≤ 10 | ≤ 100 | CCC[C@@H](Oc1ccc(Cl)cc1Cl)[C@H]1CCNC1 [Example 4-29, (S)-3-[(R)-1-(2,4-Dichlorophenoxy)butyl]pyrrolidine] |
| ≤ 10 | ≤ 100 | CCC[C@H](Oc1ccc(Cl)cc1Cl)[C@@H]1CCNC1 [Example 4-30, (R)-3-[(S)-1-(2,4-Dichlorophenoxy)butyl]pyrrolidine] |
| ≤ 10 | ≤ 100 | CCC[C@@H](Oc1ccc(Cl)cc1Cl)[C@@H]1CCNC1 [Example 4-31, (R)-3-[(R)-1-(2,4-Dichlorophenoxy)butyl]pyrrolidine] |
| ≤ 100 | ≤ 10 | CCC[C@@H](Oc1c(Cl)cccc1Cl)[C@H]1CCNC1 [Example 4-34, (S)-3-[(R)-1-(2,6-Dichlorophenoxy)butyl]pyrrolidine] |
| ≤ 100 | ≤ 100 | CCC[C@H](Oc1c(Cl)cccc1Cl)[C@@H]1CCNC1 [Example 4-35, (R)-3-[(S)-1-(2,6-Dichlorophenoxy)butyl]pyrrolidine] |
| ≤ 100 | ≤ 100 | CCC[C@@H](Oc1c(Cl)cccc1Cl)[C@@H]1CCNC1 [Example 4-36, (R)-3-[(R)-1-(2,6-Dichlorophenoxy)butyl]pyrrolidine] |
| ≤ 10 | ≤ 100 | CCC[C@H](Oc1ccc(C)cc1Cl)[C@@H]1CCNC1 [Example 4-38, (R)-3-[(S)-1-(2-Chloro-4-methylphenoxy)butyl]pyrrolidine] |
| ≤ 10 | ≤ 100 | CCC[C@H](Oc1cccc(Cl)c1C)[C@@H]1CCNC1 [Example 4-56, (R)-3-[(S)-1-(3-Chloro-2-methylphenoxy)butyl]pyrrolidine] |
| ≤ 10 | ≤ 10 | CCC[C@H](Oc1ccc(Cl)cc1C)[C@@H]1CCNC1 [Example 4-59, (R)-3-[(S)-1-(4-Chloro-2-methylphenoxy)butyl]pyrrolidine] |
| ≤ 10 | ≤ 100 | CCC[C@@H](Oc1ccc(Cl)cc1C)[C@H]1CCNC1 [Example 4-60, (S)-3-[(R)-1-(4-Chloro-2-methylphenoxy)butyl]pyrrolidine] |
| ≤ 10 | ≤ 10 | CCC[C@H](Oc1ccc(Cl)cc1C(F)(F)F)[C@H]1CCNC1 [Example 4-64, (S)-3-[(S)-1-(4-Chloro-2-trifluoromethylphenoxy)butyl]pyrrolidine] |
| ≤ 100 | ≤ 100 | CCC[C@@H](Oc1ccc(Cl)cc1C(F)(F)F)[C@H]1CCNC1 [Example 4-65, (S)-3-[(R)-1-(4-Chloro-2-trifluoromethylphenoxy)butyl]pyrrolidine] |
| ≤ 10 | ≤ 100 | CCC[C@H](Oc1ccc(Cl)cc1C(F)(F)F)[C@@H]1CCNC1 [Example 4-66, (R)-3-[(S)-1-(4-Chloro-2-trifluoromethylphenoxy)butyl]pyrrolidine] |
| ≤ 10 | ≤ 100 | CCC[C@@H](Oc1ccc(Cl)cc1C(F)(F)F)[C@@H]1CCNC1 [Example 4-67, (R)-3-[(R)-1-(4-Chloro-2-trifluoromethylphenoxy)butyl]pyrrolidine] |
| ≤ 10 | ≤ 10 | CCC[C@H](Oc1cccc(Cl)c1C(F)(F)F)[C@H]1CCNC1 [Example 4-68, (S)-3-[(S)-1-(3-Chloro-2-trifluoromethylphenoxy)butyl]pyrrolidine] |
| ≤ 10 | ≤ 100 | CCC[C@@H](Oc1cccc(Cl)c1C(F)(F)F)[C@H]1CCNC1 [Example 4-69, (S)-3-[(R)-1-(3-Chloro-2-trifluoromethylphenoxy)butyl]pyrrolidine] |
| ≤ 10 | ≤ 100 | CCC[C@H](Oc1cccc(Cl)c1C(F)(F)F)[C@@H]1CCNC1 [Example 4-70, (R)-3-[(S)-1-(3-Chloro-2-trifluoromethylphenoxy)butyl]pyrrolidine] |
| ≤ 100 | ≤ 10 | CC(C)[C@H](Oc1ccccc1F)[C@H]1CCNC1 [Example 6-1, (S)-3-[(S)-1-(2-Fluorophenoxy)-2-methylpropyl]pyrrolidine] |
| ≤ 100 | ≤ 100 | CC(C)C(Oc1ccccc1F)C1CCNC1 (stereo not shown) [Example 6-2, 3-[1-(2-Fluorophenoxy)-2-methylpropyl]pyrrolidine] |
| ≤ 10 | ≤ 100 | CC(C)[C@@H](Oc1ccc(Cl)cc1Cl)[C@H]1CCNC1 [Example 6-22, (S)-3-[(R)-1-(2,4-Dichlorophenoxy)-2-methylpropyl]pyrrolidine] |
| ≤ 100 | ≤ 10 | CC(C)C(Oc1c(Cl)cccc1Cl)C1CCNC1 (stereo not shown) [Example 6-27, 3-[1-(2,6-Dichlorophenoxy)-2-methylpropyl]pyrrolidine] |
